Results published in patent US20130237609A1, “CELLULOSE DERIVATIVES FOR ENHANCING BIOAVAILABILITY OF FLAVONOIDS” (priority 2011, published 2013).
Values after ≈ are worked out from the molar mass of the structure shown. Where two headings read alike, the source gives them in different places.

Legend:
[1] = cited from earlier work
[2] = formulated as nanocrystals, solid dispersion in HPMCAS, nanoemulsion (Onoue 2010); cited from earlier work
[3] = Curcumin release profile, pH 6.8 buffer; type: physicochemical; conditions: pH 6.8, UV-Vis
[4] = Curcumin stability in pH 7.4 buffer, HPLC after EtOH dilution; type: physicochemical; conditions: 24 h, room temperature, EtOH dilution before measurement
Experimental: […]. Samples were incubated at room temperature for indicated times. After incubation, the reaction mixtures were diluted by 1 mL of ethanol and the UV-Vis absorption of the diluted solution was measured; then the diluted solution was filtered through a 1 μm PVDF membrane filter, and the filtrate was analyzed by HP LC. HPLC was performed with an Agilent 1200 series liquid chromatograph equipped with a 1200 quaternary pump, a variable wavelength UV/Vis detector and an Eclipse XDB-C18 column (150×4.6 mm, 5 μm particle size) using the mixture of 40% THF, 60% water and 1% acetic acid (pH 3.0) as mobile phase.
(Wang 1997). Such chemical degradation is likely the result of retro-aldol reactions. (Priyadarsini 2009). […] This experiment differs from the literature report in that the inventors use ethanol to dilute the incubated aqueous curcumin solution just prior to measurement, to make sure that any crystallized curcumin is re-dissolved for detection. […]

[5] = Curcumin stability in buffer (degradation plus crystallization), UV-Vis, no EtOH added; conditions: after 5 h, no EtOH dilution
[6] = pH 7.4 buffer; cited from earlier work
[7] = Curcumin stability in buffer, UV-Vis after EtOH dilution; type: physicochemical
[8] = with piperine as metabolic inhibitor, in humans; cited from earlier work
[9] = Curcumin release profile, pH 1.2 buffer; type: physicochemical; conditions: polymer label = amorphous blend of curcumin with that polymer
[10] = Contact angle of water on spin-coated films; type: physicochemical; conditions: Cur/polymer weight ratio, PVP samples: initial value

Oc1ccc(C=Cc2cc(O)cc(O)c2)cc1 [Resveratrol]
Solubility [1]: <0.1 µg/mL

COC1=CC(=O)C[C@@H](C)[C@]12Oc1c(Cl)c(OC)cc(OC)c1C2=O [griseofulvin]
Solubility (physchem; solubility of crystalline griseofulvin): 12 µg/mL (≈ 34 µM) | Solubility (physchem; solubility of griseofulvin in the polymer matrix): ≤ 30000 µg/mL

O=c1oc2c(O)c(O)cc3c(=O)oc4c(O)c(O)cc1c4c23 [Ellagic Acid]
Solubility [1]: 10 µg/mL (≈ 33.1 µM)

O=c1c(O)c(-c2ccc(O)c(O)c2)oc2cc(O)cc(O)c12 [Quercetin]
Solubility [1]: 0.4 µg/mL (≈ 1.32 µM)

COc1cc(/C=C/C(=O)CC(=O)/C=C/c2ccc(O)c(OC)c2)ccc1O [Curcumin, 1,7-bis(4-hydroxy-3-methoxyphenyl)-1,6-heptadiene-3,5-dione]
improvement of oral bioavailability of curcumin [2]: 9-16 fold | Cur release concentration [3]: below the UV/Vis detection limit | curcumin degraded (HPLC, curcumin peak RT 6.0 min) [4]: 36% | curcumin remained in solution ([5]; pH 6.8 buffer): ~44% | curcumin remained in solution ([5]; pH 7.4 buffer): around 40% | half-life of curcumin [6]: 5.4 min | Cur degraded (UV-Vis) ([7]; pH 6.8, after 5 h, EtOH dilution): 7% | Cur degraded (UV-Vis) ([7]; pH 7.4, after 5 h, EtOH dilution): 16% | Cur degraded (UV-Vis) ([7]; pH 7.4 buffer, 24 h, EtOH dilution before measurement): 33% | Solubility [1]: 3 µg/mL (≈ 8.14 µM) | improvement of curcumin oral bioavailability [8]: up to 20 fold | dissolution [9]: virtually no dissolution | contact angle of water on film [10]: 102 °
